Laboratory results published in article PMC7177833, “2-Aminopyridine Analogs Inhibit Both Enzymes of the Glyoxylate Shunt in Pseudomonas aeruginosa” (International Journal of Molecular Sciences, 2020).

Legend:
CYP2C8 = biological target: T1, CYP2C8 (Homo sapiens, UniProt P10632); assay: CYP450 inhibition in HLM, rosiglitazone probe; type: in vitro ADME; details: read-out: IC50 CYP450 2C8
T1 construct: pooled human liver microsomes; tissue BioIVT; host or cells: pooled human liver microsomes
T1 sequence (P10632 1-490): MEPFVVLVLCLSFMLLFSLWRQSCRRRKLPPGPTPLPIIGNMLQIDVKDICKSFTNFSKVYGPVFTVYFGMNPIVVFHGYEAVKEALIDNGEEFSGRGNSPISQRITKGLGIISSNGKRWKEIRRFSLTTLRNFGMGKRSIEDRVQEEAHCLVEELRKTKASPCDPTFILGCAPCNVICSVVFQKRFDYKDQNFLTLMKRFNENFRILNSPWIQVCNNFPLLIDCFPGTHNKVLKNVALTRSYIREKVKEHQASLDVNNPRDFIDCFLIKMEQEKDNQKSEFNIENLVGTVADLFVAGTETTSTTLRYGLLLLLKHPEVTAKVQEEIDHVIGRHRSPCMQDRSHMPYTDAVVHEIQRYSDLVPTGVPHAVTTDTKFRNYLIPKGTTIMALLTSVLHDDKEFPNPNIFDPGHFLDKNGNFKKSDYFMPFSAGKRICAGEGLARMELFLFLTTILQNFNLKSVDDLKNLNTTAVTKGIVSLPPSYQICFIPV
Method: The CYP450 inhibition was determined by measuring the reaction products of known CYP450 substrates (probes). Probe solutions were prepared by diluting stock solutions with buffer (100 mM Tris-HCl, pH 7.5, and 0.5 mM EDTA) to the final indicated concentrations (Figure 5), and adding 180 µL of pooled human liver microsomes (20 mg/mL) (BioIVT, West Sussex, UK). These probe solutions were dispensed (195 µL) into clear 96-well plates with low evaporation lids (Corning, Turin, Italy) and the plates were prewarmed to 37 °C in a thermomixer (Hamilton, Agrate Brianza, Italy). Next, 5 µL of the test compound or appropriate positive control (Table S4) were added to the wells and the plates were incubated for a further 5 min. Following this, the reactions were started by adding NADPH regenerating solution (50 µL, see previous Section 4.7) to each well. CYP450 mixtures containing phenacetin, rosiglitazone, mephenytoin, atorvastatin, and nifedipine probes were incubated for 10 min at 37 °C, whereas those with midazolam and diclofenac were incubated for 5 min at 37 °C. Aliquots (100 µL) from each reaction mixture were quenched in 200 µL acetonitrile, and the mixtures were sedimented at 3000 ×g for 10 min at 4 °C. The supernatants were diluted in water containing 5 ng/mL Rolipram as an internal standard for LC-MS/MS analysis. All incubations were carried out in triplicate.
Probe products were analyzed on an API4000 Qtrap mass spectrometer (Applied Biosystems/MDS SCIEX, Monza, Italy) coupled with an Acquity UPLC system (Waters, Milan, Italy) and a CTC-PAL auto-injector (CTC Analytics AG, Zwingen, Switzerland). […] The column temperature was maintained at 60 °C. The injected sample volume was 10 µL, and analytes were eluted at a flow rate of 800 µL/min in a gradient of eluent A (water with 0.1% formic acid) and eluent B (acetonitrile with 0.1% formic acid). […] The analytes were quantified in multiple reaction-monitoring mode. Data were processed, and the percentage control activity was calculated based on a comparison between the ratio of the sample peak area and the peak area.

[1] = biological target: T2, ICLPa (isocitrate lyase from P. aeruginosa) (Pseudomonas aeruginosa, UniProt Q9I0K4); assay: Inhibition of purified ICLPa enzymatic activity; type: biochemical; details: for inhibition at 75 µM: 75 µM compound, read-out: Enzyme Inhibition (%) at 75 µM ICLPa; for IC50: purified enzyme, 170 nM ICL
T2 construct: made in house
T2 sequence (Q9I0K4 1-531): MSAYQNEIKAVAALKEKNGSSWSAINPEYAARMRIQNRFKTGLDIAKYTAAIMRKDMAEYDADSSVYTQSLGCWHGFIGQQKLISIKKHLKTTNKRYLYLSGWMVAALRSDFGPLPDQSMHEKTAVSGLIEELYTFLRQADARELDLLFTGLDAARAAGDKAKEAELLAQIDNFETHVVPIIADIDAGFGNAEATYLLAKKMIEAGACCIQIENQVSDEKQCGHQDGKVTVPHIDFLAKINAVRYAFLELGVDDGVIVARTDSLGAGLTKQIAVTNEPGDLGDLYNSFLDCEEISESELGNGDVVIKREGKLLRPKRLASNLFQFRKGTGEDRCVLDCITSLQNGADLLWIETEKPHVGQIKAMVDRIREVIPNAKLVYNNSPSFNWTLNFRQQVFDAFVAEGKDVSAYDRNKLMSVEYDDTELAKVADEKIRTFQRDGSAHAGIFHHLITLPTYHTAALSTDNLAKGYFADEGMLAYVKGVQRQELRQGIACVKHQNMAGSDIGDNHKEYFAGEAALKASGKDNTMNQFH
Method: The enzymatic activity of purified ICLPa and MSPa was assayed essentially as previously described. Compounds were added to the reaction mixtures (minus substrates) and incubated for 5 min at 37 °C. The enzyme concentration in the reaction mixtures was 170 nM for ICL and 25 nM for MS (based on the concentration of the monomer in each case). […] The reactions were initiated by the addition of pH-adjusted substrates, and the initial rates were recorded as A324 nm (for ICLPa) and A412 nm (for MSPa) using a Biospectrometer (Eppendorf, Stevenage, UK). Substrate turnover was calculated from the molar extinction coefficient of the assay products: Glyoxylate-phenylhydrazone (16,800/M/cm) for ICLPa and 2-nitro-5-thiobenzoic acid (14,150/M/cm) for MSPa.
All data fitting was performed with GraphPad Prism version 7.04 (GraphPad Software, Inc., La Jolla, CA, USA). The solid lines are the result of fitting the data to the equations denoted in relevant experimental sections. IC50 values were determined by a nonlinear fit using the equation for sigmoidal dose-response with variable slope. In all graphs, unless otherwise stated, the data points are the mean of experimental triplicates, and all error bars correspond to ± standard deviation.

CYP2D6 = biological target: T3, CYP2D6 (Homo sapiens, UniProt P10635); assay: CYP450 inhibition in HLM, bufuralol probe; type: in vitro ADME; details: read-out: IC50 CYP450 2D6
T3 construct: pooled human liver microsomes; tissue BioIVT; host or cells: pooled human liver microsomes
T3 sequence (P10635 whole entry): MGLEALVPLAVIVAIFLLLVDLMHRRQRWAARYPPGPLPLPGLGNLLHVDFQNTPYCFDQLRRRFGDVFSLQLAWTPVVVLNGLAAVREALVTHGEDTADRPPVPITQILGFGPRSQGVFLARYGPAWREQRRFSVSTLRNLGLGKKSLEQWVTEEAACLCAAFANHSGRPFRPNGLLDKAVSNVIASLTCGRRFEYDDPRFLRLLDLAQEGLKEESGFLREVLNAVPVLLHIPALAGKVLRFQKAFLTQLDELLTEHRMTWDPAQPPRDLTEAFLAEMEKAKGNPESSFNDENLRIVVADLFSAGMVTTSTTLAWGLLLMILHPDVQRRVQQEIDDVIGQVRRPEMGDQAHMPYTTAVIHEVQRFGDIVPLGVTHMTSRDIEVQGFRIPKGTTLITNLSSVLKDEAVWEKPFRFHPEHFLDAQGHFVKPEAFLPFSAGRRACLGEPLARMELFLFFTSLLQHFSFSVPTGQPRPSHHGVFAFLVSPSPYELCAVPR

For `CC(C)(C)OC(=O)/N=C(\NC(=O)OC(C)(C)C)Nc1cc(Cl)ccn1` [SB002], the IC50 (CYP2C8) was greater than 100 µM, the inhibition at 75 µM [1] was 100% and the IC50 [1] was 13.3 µM. The IC50 (CYP2D6) was greater than 100 µM.
`Nc1cc(Cl)ccn1` [Compound 2-AP, 2-amino-4-chloropyridine, reference compound] was tested, and the IC50 (CYP2C8) was greater than 100 µM, the inhibition at 75 µM [1] was 21% and the IC50 [1] was greater than 75 µM. The IC50 (CYP2D6) was greater than 100 µM.
`CC(C)(C)OC(=O)/N=C(\NC(=O)OC(C)(C)C)Nc1cc(C#N)ccn1` [SB023] was tested, and the IC50 (CYP2C8) was greater than 100 µM, the inhibition at 75 µM [1] was 34.7% and the IC50 [1] was 92.5 µM. The IC50 (CYP2D6) was greater than 100 µM.
